System: 755483-174-R-J1-PDC complex spheroid growth, percent test/control
Assay: Anticancer human tumor 755483-174-R-J1-PDC patient-derived rhabdomyosarcoma cell line growth inhibition [Asc]
Conditions: for IC50: curve of first compound; for viability, T/C: stronger effect = lower value
In short: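 Tumor cells were grown as multicellular spheroids with stromal HUVEC and mesenchymal stem cells and treated singly or in combination. Concentrations fell in half-log steps from the clinical Cmax, or from 10 microM where none was known.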
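Further: spheroids exposed to compounds for seven days before readout.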

IC50 (second compound 0.03 µM): 8.79 µM | IC50 (second compound 0.0949 µM): 9.37 µM | IC50 (second compound 0.3 µM): 6.91 µM | IC50 (second compound 0.949 µM): 8.9 µM | IC50 (second compound 3 µM): 7.2 µM
Compound: C#Cc1c(F)ccc2cc(O)cc(-c3ncc4c(N5CC6CCC(C5)N6)nc(OCC56CCCN5CC(F)C6)nc4c3F)c12 (stereo not given) + CCN1C(C(=O)NC23CCC(C(=O)O)(CC2)CC3)C(c2cccc(Cl)c2F)C2(C(=O)Nc3cc(Cl)ccc32)C12CCCCC2
viability, T/C (second compound 0.03 µM, first compound 0.0316 µM): 90.5% | viability, T/C (second compound 0.03 µM, first compound 0.1 µM): 96.1% | viability, T/C (second compound 0.03 µM, first compound 0.316 µM): 95.5% | viability, T/C (second compound 0.03 µM, first compound 1 µM): 120% | viability, T/C (second compound 0.03 µM, first compound 3.16 µM): 71.8% | viability, T/C (second compound 0.03 µM, first compound 10 µM): 47.2% | viability, T/C (second compound 0.0949 µM, first compound 0.0316 µM): 135% | viability, T/C (second compound 0.0949 µM, first compound 0.1 µM): 110% | viability, T/C (second compound 0.0949 µM, first compound 0.316 µM): 128% | viability, T/C (second compound 0.0949 µM, first compound 1 µM): 121% | viability, T/C (second compound 0.0949 µM, first compound 3.16 µM): 59.8% | viability, T/C (second compound 0.0949 µM, first compound 10 µM): 49.4% | viability, T/C (second compound 0.3 µM, first compound 0.0316 µM): 79.4% | viability, T/C (second compound 0.3 µM, first compound 0.1 µM): 88.4% | viability, T/C (second compound 0.3 µM, first compound 0.316 µM): 143% | viability, T/C (second compound 0.3 µM, first compound 1 µM): 89.1% | viability, T/C (second compound 0.3 µM, first compound 3.16 µM): 91.7% | viability, T/C (second compound 0.3 µM, first compound 10 µM): 30.5% | viability, T/C (second compound 0.949 µM, first compound 0.0316 µM): 78.9% | viability, T/C (second compound 0.949 µM, first compound 0.1 µM): 79.5% | viability, T/C (second compound 0.949 µM, first compound 0.316 µM): 117% | viability, T/C (second compound 0.949 µM, first compound 1 µM): 118% | viability, T/C (second compound 0.949 µM, first compound 3.16 µM): 88.2% | viability, T/C (second compound 0.949 µM, first compound 10 µM): 45.7% | viability, T/C (second compound 3 µM, first compound 0.0316 µM): 111% | viability, T/C (second compound 3 µM, first compound 0.1 µM): 106% | viability, T/C (second compound 3 µM, first compound 0.316 µM): 116% | viability, T/C (second compound 3 µM, first compound 1 µM): 114% | viability, T/C (second compound 3 µM, first compound 3.16 µM): 80.6% | viability, T/C (second compound 3 µM, first compound 10 µM): 37.8%
